In ChEMBL document CHEMBL5523682, “The formyl peptide receptors FPR1 and FPR2 as targets for inflammatory disorders: recent advances in the development of small-molecule agonists” (Eur J Med Chem, 2024):
Where a SMILES comes first, the peptide text is derived from it. The star is where a group is joined. For = O=C*

Experiments:
fMet-Leu-Phe receptor [1] = molecular target: T1, fMet-Leu-Phe receptor (Homo sapiens, UniProt P21462); test: Agonist activity at human FPR1 expressed in HL-60 cells assessed as increase in calcium mobilization by FLIPR analysis; assay type: functional, cell-based
T1 sequence (P21462 whole entry): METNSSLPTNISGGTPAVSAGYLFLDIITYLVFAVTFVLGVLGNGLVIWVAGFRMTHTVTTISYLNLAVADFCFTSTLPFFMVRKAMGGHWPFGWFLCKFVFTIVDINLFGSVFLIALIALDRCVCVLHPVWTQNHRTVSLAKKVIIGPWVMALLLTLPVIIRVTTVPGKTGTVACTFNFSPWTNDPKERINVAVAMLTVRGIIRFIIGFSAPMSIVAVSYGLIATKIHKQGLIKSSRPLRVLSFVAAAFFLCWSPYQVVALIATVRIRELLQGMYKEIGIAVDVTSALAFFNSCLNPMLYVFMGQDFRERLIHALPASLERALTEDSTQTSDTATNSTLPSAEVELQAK

[2] = molecular target: T2, N-formyl peptide receptor 2 (Homo sapiens, UniProt P25090); test: Agonist activity at FPR2 (unknown origin) in HEK293 cells; assay type: functional, cell-based
T2 sequence (P25090 whole entry): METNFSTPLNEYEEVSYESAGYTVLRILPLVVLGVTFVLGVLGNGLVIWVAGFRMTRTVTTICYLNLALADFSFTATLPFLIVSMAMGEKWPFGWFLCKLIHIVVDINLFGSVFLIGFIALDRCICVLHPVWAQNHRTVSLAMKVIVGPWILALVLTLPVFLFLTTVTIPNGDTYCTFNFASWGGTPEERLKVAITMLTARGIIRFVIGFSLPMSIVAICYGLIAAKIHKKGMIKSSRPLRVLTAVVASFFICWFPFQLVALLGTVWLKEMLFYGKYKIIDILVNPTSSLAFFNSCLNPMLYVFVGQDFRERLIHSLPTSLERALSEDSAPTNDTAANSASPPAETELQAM

fMet-Leu-Phe receptor [3] = molecular target: T1, fMet-Leu-Phe receptor; test: Agonist activity at FPR1 (unknown origin) in HEK293 cells; assay type: functional, cell-based
[4] = molecular target: T2, N-formyl peptide receptor 2; test: Agonist activity at human FPR2 expressed in HL-60 cells assessed as inhibition of WKYMVM-induced calcium mobilization; assay type: functional, cell-based
[5] = molecular target: T2, N-formyl peptide receptor 2; test: Agonist activity at FPR2 (unknown origin) expressed in CHO cells by cAMP assay; assay type: functional, cell-based
Homo sapiens = species on record: Homo sapiens; test: Selectivity ratio of EC50 for agonist activity at human FPR1 transfected in CHO cells to EC50 for agonist activity at human FPR2 transfected in CHO cells; assay type: cell-based
fMet-Leu-Phe receptor [6] = molecular target: T1, fMet-Leu-Phe receptor; test: Agonist activity at human FPR1 transfected in CHO cells by cAMP assay; assay type: functional, cell-based
[7] = molecular target: T2, N-formyl peptide receptor 2; test: Agonist activity at human FPR2 expressed in HL-60 cells assessed as increase in calcium mobilization by FLIPR analysis; assay type: functional, cell-based
[8] = molecular target: T3, Formyl peptide receptor 2 (Mus musculus, UniProt O88536); test: Agonist activity at mouse FPR2
T3 sequence (O88536 whole entry): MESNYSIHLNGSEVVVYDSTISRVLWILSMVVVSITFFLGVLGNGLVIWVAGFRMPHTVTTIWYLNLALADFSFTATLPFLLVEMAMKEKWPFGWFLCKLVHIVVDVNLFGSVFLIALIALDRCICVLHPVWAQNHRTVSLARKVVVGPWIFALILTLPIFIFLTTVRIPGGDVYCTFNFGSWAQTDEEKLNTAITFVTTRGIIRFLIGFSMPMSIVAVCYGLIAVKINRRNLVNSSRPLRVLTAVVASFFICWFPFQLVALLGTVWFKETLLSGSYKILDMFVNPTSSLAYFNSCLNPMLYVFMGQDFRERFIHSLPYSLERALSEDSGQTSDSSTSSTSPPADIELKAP

fMet-Leu-Phe receptor [9] = molecular target: T4, fMet-Leu-Phe receptor (Mus musculus, UniProt P33766); test: Agonist activity at mouse FPR1; assay type: functional
T4 sequence (P33766 whole entry): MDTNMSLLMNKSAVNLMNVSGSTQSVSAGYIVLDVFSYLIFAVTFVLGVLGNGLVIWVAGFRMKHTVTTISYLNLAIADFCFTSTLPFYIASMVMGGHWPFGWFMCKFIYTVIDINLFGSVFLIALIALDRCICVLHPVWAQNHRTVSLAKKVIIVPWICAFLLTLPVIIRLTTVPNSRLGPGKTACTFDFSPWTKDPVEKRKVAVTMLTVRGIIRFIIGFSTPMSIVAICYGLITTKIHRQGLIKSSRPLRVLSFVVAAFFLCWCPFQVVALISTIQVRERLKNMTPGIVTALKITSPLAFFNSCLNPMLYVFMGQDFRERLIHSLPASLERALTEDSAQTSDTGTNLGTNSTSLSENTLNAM

[10] = molecular target: T2, N-formyl peptide receptor 2; test: Agonist activity at human FPR2 expressed in CHO cells assessed as increase in calcium mobilization by Fluo-4 AM dye based fluorescence assay; assay type: functional, cell-based

COc1ccc(CC(Cc2ccc3c(c2)OCO3)NC(=O)Nc2ccc(Cl)cc2)cc1 (stereo not given)
EC50 (fMet-Leu-Phe receptor [1]): 110 nM

COc1cc(F)c(-n2c(-c3ccccc3)cnc2NC(=O)c2ccc(OC(F)F)cc2)c(F)c1
EC50 [2]: 4 nM | EC50 (fMet-Leu-Phe receptor [3]): 200 nM

O=C(Nc1ccc(Br)nc1)[C@@H]1C2CCC([C@H]1C(=O)OCCC1CCNCC1)C21CC1 (stereo not given in full)
EC50 [2]: 0.4 nM

CC[C@H](C)[C@H](NC(=O)[C@H](CC(N)=O)NC(=O)[C@@H](NC(=O)[C@H](CCSC)NC=O)[C@@H](C)O)C(=O)N[C@@H](CCCNC(=N)N)C(=O)N[C@@H](CCCCN)C(=O)N[C@@H](CO)C(=O)N[C@@H](Cc1cnc[nH]1)C(=O)N1CCC[C@H]1C(=O)N[C@@H](CC(C)C)C(=O)N[C@@H](CCSC)C(=O)N[C@@H](CCCCN)C(=O)N[C@H](C(=O)N[C@H](C(=O)N[C@@H](CC(N)=O)C(=O)O)[C@@H](C)CC)[C@@H](C)CC (For-MTNIRKSHPLMKIIN-OH)
EC50 [4]: 6.9 nM

COc1ccc(NC(=O)N[C@@H]2CCCN(c3ccc(-c4ccccc4C(N)=O)cc3)C2=O)cc1
EC50 [5]: 5 nM

COc1cccc(-n2c(=O)c(NC(=O)c3ccc(OC(F)F)cc3)c(-c3c(F)cc(OC)cc3F)n2C)c1
Ratio EC50 (Homo sapiens): 0.6

COc1cc(OC)cc(-n2c(=O)c(NC(=O)c3ccc(OC(F)F)cc3)c(-c3c(F)cc(OC)cc3F)n2C)c1
Ratio EC50 (Homo sapiens): 3400 | EC50 (fMet-Leu-Phe receptor [6]): 10 nM

COc1cc(C2CCNCC2)nc(-n2c(=O)c(NC(=O)c3ccc(OC(F)F)cc3)c(-c3c(F)cc(OC)cc3F)n2C)c1
EC50 (fMet-Leu-Phe receptor [6]): > 10000 nM

COc1ccc([C@@H]2COC(=O)[C@@H]2NC(=O)Nc2ccc(Cl)cc2)cc1 (racemic)
EC50 [5]: 0.25 nM

COc1ccc([C@@H]2CN(CCO)C(=O)[C@H]2NC(=O)Nc2ccc(Cl)cc2)cc1
EC50 [5]: 0.01 nM

COc1ccc(C2(CNC(=O)[C@H](Cc3c[nH]c4ccccc34)NC(=O)Nc3ccc([N+](=O)[O-])cc3)CCCCC2)nc1
EC50 (fMet-Leu-Phe receptor [1]): 4100 nM

CC(=O)CCCCc1nc(NC(=O)OCc2ccccc2C)co1
EC50 [2]: 0.3 nM

N#Cc1ccccc1-c1ccc(N2CC[C@@H](NC(=O)Nc3ccc(Cl)cc3F)C2=O)c(F)c1F
Ratio EC50 (Homo sapiens): 14

COc1cccc(-c2cc(C#N)c(=O)n(CC(=O)Nc3ccc(Br)cc3)c2C)c1
EC50 ([7]; hl-60): 0.12 µM | EC50 (fMet-Leu-Phe receptor [1]; hl-60): 1600 nM

COc1cc(F)c(-c2c(NC(=O)c3ccc(OC(F)F)cc3)c(=O)n(-c3cccc(OC(F)F)c3)n2C)c(F)c1
Ratio EC50 (Homo sapiens): 1

COc1ccc(C2(CNC(=O)[C@](C)(Cc3c[nH]c4ccccc34)NC(=O)Nc3ccc([N+](=O)[O-])cc3)CCCCC2)nc1
EC50 (fMet-Leu-Phe receptor [1]): 300 nM

O=C(O)[C@@H]1C2CCC([C@@H]1C(=O)Nc1ccc(Br)cc1)C21CC1 (stereo not given in full)
EC50 [8]: 280 nM

CC(C)c1c(NC(=O)Nc2ccc(Cl)cc2)c(=O)n(-c2ccccc2)n1C
EC50 (fMet-Leu-Phe receptor [9]): 350 nM | EC50 [8]: 890 nM

CC[C@H](C)[C@H](NC(=O)Nc1ccc(Br)cc1F)C(=O)O
EC50 [10]: 87 nM

CS(=O)(=O)c1ccccc1-c1ccc(N2CC[C@@H](NC(=O)Nc3ccc(Cl)cc3F)C2=O)c(F)c1F
Ratio EC50 (Homo sapiens): 66

CCC1(C(C)C)NC(=O)N(CC(=O)Nc2ccc(Br)cc2)C1=O (stereo not given)
EC50 [10]: 0.5 nM

COc1cc(F)c(-c2c(NC(=O)c3ccc(OC(F)F)cc3)c(=O)n(-c3cccc(-n4ccc(C)n4)n3)n2C)c(F)c1
Ratio EC50 (Homo sapiens): 1

COc1cc(F)c(-n2c(C3CC(N)C3)cnc2NC(=O)c2ccc(OC(F)F)cc2)c(F)c1 (stereo not given)
EC50 ([2]; hek293): 4 nM | EC50 (fMet-Leu-Phe receptor [3]; hek293): 5400 nM

Cc1ccc(NC(=O)N[C@H]2CCCN(c3ccc(-c4ccccc4C(N)=O)cc3)C2=O)cc1
EC50 [5]: 40 nM

COc1cc(F)c(-c2c(NC(=O)c3ccc(OC(F)F)cc3)c(=O)n(-c3ccccn3)n2C)c(F)c1
Ratio EC50 (Homo sapiens): > 630 | EC50 (fMet-Leu-Phe receptor [6]): > 10 nM

CCC(Nc1ccc(OC)cc1)C(=O)N/N=C(C)/C=C/c1ccccc1 (stereo not given)
EC50 [2]: 2600 nM

C[C@@H]1CC(c2ccccc2)=NN(CC(=O)Nc2ccc(Br)cc2)C1=O
EC50 [7]: 10 µM | EC50 (fMet-Leu-Phe receptor [1]): 24000 nM

O=C(NCCCCN1CCCCC1)[C@@H]1C2CCC([C@H]1C(=O)Nc1ccc(Br)cc1)C21CC1 (stereo not given in full)
EC50 [2]: 0.07 nM
